Test results taken from ChEMBL document CHEMBL3885861, “Open TG-GATES”.

Species: Rattus norvegicus
Experiment: Open TG-GATES - Regimen: Daily Repeat
Assay type: toxicity, organism-based, Sprague-Dawley
Set-up: regimen Daily Repeat, gender Male, age 6 weeks
Details: in vivo, po, 30 mg/kg, route gavage, dose level Middle; for APTT / Bas / Eos / Fbg / Hb / Ht / Lym / MCH / MCHC / MCV / Mono / Neu / PT / Plat / RBC / Ret / WBC: tissue Blood; for KIDNEY_L / KIDNEY_R / KIDNEY_TOTAL: tissue Kidney; for LIVER: tissue Liver; for A/G / ALP / ALT / AST / BUN / CRE / Ca / Cl / DBIL / GLC / IP / K / LDH / Na / PL / RALB / TBIL / TC / TG / TP / gamma-GTP: tissue Plasma

## OCCOCCN1CCN(C(c2ccccc2)c2ccc(Cl)cc2)CC1 (configuration not stated) [HYDROXYZINE]
72 h, time 3 day
  TERMINAL_BW: 226.2 g
  APTT: 15.8 s
  Bas: 0%
  Eos: 1%
  Fbg: 261.2 mg/dL
  Hb: 13.3 g/dL
  Ht: 40%
  Lym: 77.6%
  MCH: 21.9 pg
  MCHC: 33.3%
  MCV: 65.7 fL
  Mono: 3%
  Neu: 17.8%
  PT: 15.3 s
  Plat: 120.2 x10_4/uL
  RBC: 609.6 x10_4/ul
  Ret: 6.9%
  WBC: 89.6 x10_2/uL
  KIDNEY_L: 1 g
  KIDNEY_R: 1 g
  KIDNEY_TOTAL: 2 g
  LIVER: 10.9 g
  A/G: 0.9
  ALP: 1463.8 IU/L
  ALT: 40.4 IU/L
  AST: 66.6 IU/L
  BUN: 16.8 mg/dL
  CRE: 0.2 mg/dL
  Ca: 11.1 mg/dL
  Cl: 104.8 meq/L
  DBIL: 0.012 mg/dL
  GLC: 186 mg/dL
  IP: 7.9 mg/dL
  K: 4 meq/L
  LDH: 72.6 IU/L
  Na: 143.6 meq/L
  PL: 158.6 mg/dL
  RALB: 2.6 g/dL
  TBIL: 0.05 mg/dL
  TC: 83 mg/dL
  TG: 100.8 mg/dL
  TP: 5.6 g/dL
  gamma-GTP: 0.8 IU/L
[…], time 7 day
  TERMINAL_BW: 271.6 g
  APTT: 17 s
  Bas: 0.2%
  Eos: 0.6%
  Fbg: 265.6 mg/dL
  Hb: 13.6 g/dL
  Ht: 40.6%
  Lym: 81.8%
  MCH: 21.5 pg
  MCHC: 33.6%
  MCV: 63.9 fL
  Mono: 2.2%
  Neu: 14.4%
  PT: 15.6 s
  Plat: 107.6 x10_4/uL
  RBC: 636 x10_4/ul
  Ret: 6.5%
  WBC: 91.6 x10_2/uL
  KIDNEY_L: 1.1 g
  KIDNEY_R: 1.1 g
  KIDNEY_TOTAL: 2.3 g
  LIVER: 14 g
  A/G: 0.8
  ALP: 1827.8 IU/L
  ALT: 37.6 IU/L
  AST: 64.2 IU/L
  BUN: 18 mg/dL
  CRE: 0.2 mg/dL
  Ca: 11 mg/dL
  Cl: 104.8 meq/L
  DBIL: 0.018 mg/dL
  GLC: 192.8 mg/dL
  IP: 7.8 mg/dL
  K: 4.3 meq/L
  LDH: 58.4 IU/L
  Na: 142 meq/L
  PL: 158 mg/dL
  RALB: 2.7 g/dL
  TBIL: 0.05 mg/dL
  TC: 78 mg/dL
  TG: 120.8 mg/dL
  TP: 5.9 g/dL
  gamma-GTP: 0.6 IU/L
[…], time 14 day
  TERMINAL_BW: 331.8 g
  APTT: 16.5 s
  Bas: 0%
  Eos: 0.8%
  Fbg: 262.8 mg/dL
  Hb: 14.2 g/dL
  Ht: 41.5%
  Lym: 81.4%
  MCH: 20.7 pg
  MCHC: 34.2%
  MCV: 60.7 fL
  Mono: 3%
  Neu: 14.2%
  PT: 15.6 s
  Plat: 116.6 x10_4/uL
  RBC: 683.8 x10_4/ul
  Ret: 4.5%
  WBC: 103.2 x10_2/uL
  KIDNEY_L: 1.3 g
  KIDNEY_R: 1.3 g
  KIDNEY_TOTAL: 2.7 g
  LIVER: 16.6 g
  A/G: 0.8
  ALP: 1412.8 IU/L
  ALT: 37.6 IU/L
  AST: 63.6 IU/L
  BUN: 17.4 mg/dL
  CRE: 0.2 mg/dL
  Ca: 10.7 mg/dL
  Cl: 103.4 meq/L
  DBIL: 0.02 mg/dL
  GLC: 192.4 mg/dL
  IP: 7.6 mg/dL
  K: 4.1 meq/L
  LDH: 82.6 IU/L
  Na: 141.6 meq/L
  PL: 163 mg/dL
  RALB: 2.7 g/dL
  TBIL: 0.05 mg/dL
  TC: 81.8 mg/dL
  TG: 142 mg/dL
  TP: 6 g/dL
  gamma-GTP: 0.6 IU/L
[…], time 28 day
  TERMINAL_BW: 390.1 g
  APTT: 17.6 s
  Bas: 0.4%
  Eos: 1.6%
  Fbg: 274.4 mg/dL
  Hb: 15.8 g/dL
  Ht: 45.6%
  Lym: 80.6%
  MCH: 19.9 pg
  MCHC: 34.5%
  MCV: 57.5 fL
  Mono: 2%
  Neu: 14.8%
  PT: 15.9 s
  Plat: 91.9 x10_4/uL
  RBC: 792.8 x10_4/ul
  Ret: 2.3%
  WBC: 101.1 x10_2/uL
  KIDNEY_L: 1.5 g
  KIDNEY_R: 1.4 g
  KIDNEY_TOTAL: 2.9 g
  LIVER: 16.7 g
  A/G: 0.8
  ALP: 1021.6 IU/L
  ALT: 37.2 IU/L
  AST: 59.4 IU/L
  BUN: 17.8 mg/dL
  CRE: 0.2 mg/dL
  Ca: 10.6 mg/dL
  Cl: 105 meq/L
  DBIL: 0.014 mg/dL
  GLC: 191.2 mg/dL
  IP: 6.7 mg/dL
  K: 4 meq/L
  LDH: 52 IU/L
  Na: 142.8 meq/L
  PL: 156.6 mg/dL
  RALB: 2.8 g/dL
  TBIL: 0.046 mg/dL
  TC: 77.4 mg/dL
  TG: 123 mg/dL
  TP: 6.2 g/dL
  gamma-GTP: 0.6 IU/L
